According to US20240051946A1, “TARGETED PROTEIN DEGRADATION OF PARP14 FOR USE IN THERAPY” (Ribon Therapeutics, Inc., priority 2022, published 2024):

biological target: T1, catalytic domain of human PARP14 (residues 1611 to 1801) with NanoLuc tag (Homo sapiens, UniProt Q460N5); test: NanoLuc assay for the degradation of PARP14; format: cell-based; settings: Assay A; NanoLuc-PARP14 overexpressed in HEK-293T cells; 2 hours at 37 degrees; luminescence
T1 construct: expressed in transfected cells; host or cells: HEK-293T cells (ATCC), plasmid pRTX240 in pcDNA3.1(-)
T1 sequence (Q460N5 1611-1801): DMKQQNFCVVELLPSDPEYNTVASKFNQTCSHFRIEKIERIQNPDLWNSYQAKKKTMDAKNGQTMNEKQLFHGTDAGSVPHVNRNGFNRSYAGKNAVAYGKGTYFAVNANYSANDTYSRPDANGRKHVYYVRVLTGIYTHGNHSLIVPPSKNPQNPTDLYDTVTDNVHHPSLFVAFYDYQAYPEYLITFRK
Protocol: The catalytic domain of human PARP14 (residues 1611 to 1801, GenBank Accession No. NM_017554) was inserted into the pcDNA3.1(−) vector. The insert also contained a NanoLuc tag on the N terminus of the PARP14 protein.
Degradation of PARP14 protein was assessed using measurement of the NanoLuc tag as proxy for the PARP14 protein. PARP14 with NanoLuc tag was overexpressed in […] cells (ATCC) using the plasmid described in Table 1. Plasmid DNA was diluted in empty vector DNA then added to 1.163 mL of phenol red free OptiMEM (Thermo Fisher). Plasmid DNA concentrations used in each assay described in Table 1. The plasmid DNA was mixed with 78.5 μL of Fugene HD (Promega) and allowed to incubate 5 minutes.
Next, 1.125 mL were added to 10 million 293T cells in DMEM (Thermo Fisher) supplemented with 10% FBS (VWR) and 1× Glutamax (Gibco). The transfection was incubated for 24 hrs at 37 degrees in an incubator supplemented with 5% CO2. The cells were then trypsinized and brought up in phenol red free OptiMEM media. Transfected HEK-293T cells were diluted to […] and then added to assay plate (Corning 3574) using a Multidrop (Thermo Fisher) to add 40 μL per well of the 384 well plate, resulting in 5,000 cells per well. 40 nL of a dose response curve diluted in DMSO of each test compound was added to the cell plate using a Mosquito (TTP Labtech) and the plate was incubated at 37 degrees for 2 hours. Assay plate was brought to room temperature then 20 μL per well of NanoGlo (Promega) was added to the plate. Luminescence was measured on an Envision (Perkin Elmer).
The average DMSO was calculated from 32 wells containing 0.1% DMSO only in columns 12 and 24 of the assay plate. The % of DMSO values were calculated as described below: […]
The % of DMSO values were plotted as a function of compound concentration and the following 4-parameter fit was applied to derive the DC50 values:
where top, bottom, and Hill Coefficient are allowed to float. Y is the % of DMSO and X is the compound concentration.
DC50 data for the Example compounds is provided below in Table 2 (“+” is <0.1 μM; “++” is ≥0.1 μM and <1 μM; and “+++” is ≥1 μM).

Row | SMILES | DC50 [nM]
1 | CC(=O)N1CCC(COc2cc(F)c3c(=O)[nH]c(CSC4CCN(C(=O)C5CCN(CC6CCN(c7cccc8c7C(=O)N(C7CCC(=O)NC7=O)C8=O)CC6)CC5)CC4)nc3c2)CC1 (stereo not shown) [Example 22, 4-(4-((4-(4-(((7-((1-acetylpiperidin-4-yl)methoxy)-5-fluoro-4-oxo-3,4-dihydroquinazolin-2-yl)methyl)thio)piperidine-1-carbonyl)piperidin-1-yl)methyl)piperidin-1-yl)-2-(2,6-dioxopiperidin-3-yl)isoindoline-1,3-dione] | < 100
2 | O=C(CN1CCC(SCc2nc3cc(OCC4CCOCC4)cc(F)c3c(=O)[nH]2)CC1)NCCCCN1CCC(c2ccc(NC3CCC(=O)NC3=O)cc2)CC1 (stereo not shown) [Example 7, N-(4-(4-(4-((2,6-dioxopiperidin-3-yl)amino)phenyl)piperidin-1-yl)butyl)-2-(4-(((5-fluoro-4-oxo-7-((tetrahydro-2H-pyran-4-yl)methoxy)-3,4-dihydroquinazolin-2-yl)methyl)thio)piperidin-1-yl)acetamide] | < 100
3 | O=C(CN1CCC(SCc2nc3cc(OCC4CCOCC4)cc(F)c3c(=O)[nH]2)CC1)NCCCC(=O)N1CCC(c2ccc(NC3CCC(=O)NC3=O)cc2)CC1 (stereo not shown) [Example 8, N-(4-(4-(4-((2,6-dioxopiperidin-3-yl)amino)phenyl)piperidin-1-yl)-4-oxobutyl)-2-(4-(((5-fluoro-4-oxo-7-((tetrahydro-2H-pyran-4-yl)methoxy)-3,4-dihydroquinazolin-2-yl)methyl)thio)piperidin-1-yl)acetamide] | < 100
4 | O=C1CCC(N2C(=O)c3cccc(N4CCN(CC5CCN(C(=O)CN6CCC(SCc7nc8cc(OCC9CCOCC9)cc(F)c8c(=O)[nH]7)CC6)CC5)CC4)c3C2=O)C(=O)N1 (stereo not shown) [Example 2, 2-(2,6-dioxopiperidin-3-yl)-4-(4-((1-(2-(4-(((5-fluoro-4-oxo-7-((tetrahydro-2H-pyran-4-yl)methoxy)-3,4-dihydroquinazolin-2-yl)methyl)thio)piperidin-1-yl)acetyl)piperidin-4-yl)methyl)piperazin-1-yl)isoindoline-1,3-dione] | < 100
5 | CC(=O)N1CCC(COc2cc(F)c3c(=O)[nH]c(CSC4CCN(CC#Cc5cccc6c5n(C)c(=O)n6C5CCC(=O)NC5=O)CC4)nc3c2)CC1 (stereo not shown) [Example 35, 3-(4-(3-(4-(((7-((1-acetylpiperidin-4-yl)methoxy)-5-fluoro-4-oxo-3,4-dihydroquinazolin-2-yl)methyl)thio)piperidin-1-yl)prop-1-yn-1-yl)-3-methyl-2-oxo-2,3-dihydro-1H-benzo[d]imidazol-1-yl)piperidine-2,6-dione] | < 100
6 | O=C(CN1CCC(SCc2nc3cc(OCC4CCOCC4)cc(F)c3c(=O)[nH]2)CC1)NCCCC(=O)N1CCC(c2cccc(NC3CCC(=O)NC3=O)c2)CC1 (stereo not shown) [Example 14, N-(4-(4-(3-((2,6-dioxopiperidin-3-yl)amino)phenyl)piperidin-1-yl)-4-oxobutyl)-2-(4-(((5-fluoro-4-oxo-7-((tetrahydro-2H-pyran-4-yl)methoxy)-3,4-dihydroquinazolin-2-yl)methyl)thio)piperidin-1-yl)acetamide] | < 100
7 | O=C(CN1CCC(SCc2nc3cc(OCC4CCOCC4)cc(F)c3c(=O)[nH]2)CC1)NCC(=O)N1CCC(c2cccc(NC3CCC(=O)NC3=O)c2)CC1 (stereo not shown) [Example 11, N-(2-(4-(3-((2,6-dioxopiperidin-3-yl)amino)phenyl)piperidin-1-yl)-2-oxoethyl)-2-(4-(((5-fluoro-4-oxo-7-((tetrahydro-2H-pyran-4-yl)methoxy)-3,4-dihydroquinazolin-2-yl)methyl)thio)piperidin-1-yl)acetamide] | < 100
8 | CC(=O)N1CCC(COc2cc(F)c3c(=O)[nH]c(CSC4CCN(CC(=O)Nc5ccc6c(c5)C(=O)N(C5CCC(=O)NC5=O)C6=O)CC4)nc3c2)CC1 (stereo not shown) [Example 32, 2-(4-(((7-((1-acetylpiperidin-4-yl)methoxy)-5-fluoro-4-oxo-3,4-dihydroquinazolin-2-yl)methyl)thio)piperidin-1-yl)-N-(2-(2,6-dioxopiperidin-3-yl)-1,3-dioxoisoindolin-5-yl)acetamide] | < 100
9 | O=C(CN1CCC(SCc2nc3cc(OCC4CCOCC4)cc(F)c3c(=O)[nH]2)CC1)NCCCCCC(=O)N1CCC(c2ccc(NC3CCC(=O)NC3=O)cc2)CC1 (stereo not shown) [Example 6, N-(6-(4-(4-((2,6-dioxopiperidin-3-yl)amino)phenyl)piperidin-1-yl)-6-oxohexyl)-2-(4-(((5-fluoro-4-oxo-7-((tetrahydro-2H-pyran-4-yl)methoxy)-3,4-dihydroquinazolin-2-yl)methyl)thio)piperidin-1-yl)acetamide] | < 100
10 | CC(=O)N1CCC(COc2cc(F)c3c(=O)[nH]c(CSC4CCN(CC(=O)N5CCC(CN6CCN(c7ccc8c(c7)C(=O)N(C7CCC(=O)NC7=O)C8=O)CC6)CC5)CC4)nc3c2)CC1 (stereo not shown) [Example 28, 5-(4-((1-(2-(4-(((7-((1-acetylpiperidin-4-yl)methoxy)-5-fluoro-4-oxo-3,4-dihydroquinazolin-2-yl)methyl)thio)piperidin-1-yl)acetyl)piperidin-4-yl)methyl)piperazin-1-yl)-2-(2,6-dioxopiperidin-3-yl)isoindoline-1,3-dione] | < 100
11 | CC(=O)N1CCC(COc2cc(F)c3c(=O)[nH]c(CSC4CCN(c5ccc6c(c5)C(=O)N(C5CCC(=O)NC5=O)C6=O)CC4)nc3c2)CC1 (stereo not shown) [Example 30, 5-(4-(((7-((1-acetylpiperidin-4-yl)methoxy)-5-fluoro-4-oxo-3,4-dihydroquinazolin-2-yl)methyl)thio)piperidin-1-yl)-2-(2,6-dioxopiperidin-3-yl)isoindoline-1,3-dione] | < 100
12 | O=C(CN1CCC(SCc2nc3cc(OCC4CCOCC4)cc(F)c3c(=O)[nH]2)CC1)NCCN1CCC(c2ccc(NC3CCC(=O)NC3=O)cc2)CC1 (stereo not shown) [Example 9, N-(2-(4-(4-((2,6-dioxopiperidin-3-yl)amino)phenyl)piperidin-1-yl)ethyl)-2-(4-(((5-fluoro-4-oxo-7-((tetrahydro-2H-pyran-4-yl)methoxy)-3,4-dihydroquinazolin-2-yl)methyl)thio)piperidin-1-yl)acetamide] | < 100
13 | CC(=O)N1CCC(COc2cc(F)c3c(=O)[nH]c(CSC4CCN(C(=O)CNc5cccc6c5C(=O)N(C5CCC(=O)NC5=O)C6=O)CC4)nc3c2)CC1 (stereo not shown) [Example 21, 4-((2-(4-(((7-((1-acetylpiperidin-4-yl)methoxy)-5-fluoro-4-oxo-3,4-dihydroquinazolin-2-yl)methyl)thio)piperidin-1-yl)-2-oxoethyl)amino)-2-(2,6-dioxopiperidin-3-yl)isoindoline-1,3-dione] | < 100
14 | O=C1CCC(N2C(=O)c3cccc(N4CCC(CN5CCC(C(=O)N6CCC(SCc7nc8cc(NC9CCCC9)cc(F)c8c(=O)[nH]7)CC6)CC5)CC4)c3C2=O)C(=O)N1 (stereo not shown) [Example 23, 4-(4-((4-(4-(((7-(cyclopentylamino)-5-fluoro-4-oxo-3,4-dihydroquinazolin-2-yl)methyl)thio)piperidine-1-carbonyl)piperidin-1-yl)methyl)piperidin-1-yl)-2-(2,6-dioxopiperidin-3-yl)isoindoline-1,3-dione] | < 100
15 | CC(=O)N1CCC(COc2cc(F)c3c(=O)[nH]c(CSC4CCN(CC5CCN(c6ccc7c(c6)C(=O)N(C6CCC(=O)NC6=O)C7=O)CC5)CC4)nc3c2)CC1 (stereo not shown) [Example 33, 5-(4-((4-(((7-((1-acetylpiperidin-4-yl)methoxy)-5-fluoro-4-oxo-3,4-dihydroquinazolin-2-yl)methyl)thio)piperidin-1-yl)methyl)piperidin-1-yl)-2-(2,6-dioxopiperidin-3-yl)isoindoline-1,3-dione] | < 100
16 | CC(=O)N1CCC(COc2cc(F)c3c(=O)[nH]c(CSC4CCN(CC5CN(c6cccc7c6CN(C6CCC(=O)NC6=O)C7=O)C5)CC4)nc3c2)CC1 (stereo not shown) [Example 41, 3-(4-(3-((4-(((7-((1-acetylpiperidin-4-yl)methoxy)-5-fluoro-4-oxo-3,4-dihydroquinazolin-2-yl)methyl)thio)piperidin-1-yl)methyl)azetidin-1-yl)-1-oxoisoindolin-2-yl)piperidine-2,6-dione] | < 100
